Measured values reported in patent publication US20110009628A1, “Compounds and Compositions for Modulating Lipid Levels and Methods of Preparing Same” (priority 2009, published 2011).

Tests used:
[1] = tested on: LDLR ligand uptake activity in HepG2 cells; assay: DiI-LDL uptake in HepG2 cells (Example 6); assay type: cell-based, human; conditions: 20 hours; also: key: +: slightly increased fluorescent intensity over control; ++: modestly increased fluorescent intensity over control; +++: strongly increased fluorescent intensity over control
Procedure: HepG2 cells (2×10^5 cells/well) in 24-well culture plates were treated with various compounds at indicated concentrations for 20 hours. The fluorescent 1.1′-dioctadecyl-3,3,3′,3′-tetramethylindocarbocyanin perchlorate (DiI-LDL) (Biomedical Technologies, Stoughton, Mass.) at a concentration of 2 μg/mL was added to cells at the end of treatment. After 4 hours, the medium was removed, cells were washed with cold PBS, and were examined immediately under a fluorescent microscope (Nikon) at 200× amplification. The fluorescent intensity in compound-treated cells was compared to that in untreated control cells. […] In these experiments berberine chloride was used for comparison.

[2] = tested on: LDLR mRNA expression in HepG2 cells; assay: LDLR mRNA expression in HepG2 cells, semi-quantitative RT-PCR; assay type: cell-based, human; conditions: 8 hours, FIG. 1
Procedure: HepG2 cells obtained from American Tissue Culture Collection (Manassas, Va., USA) were seeded in 6-well culture plates at a density of 0.8×10^6 cells/well cultured in EMEM containing 0.5% FBS and were treated with each purified compound at indicated doses for 8 hours. Total RNA was isolated, and 2 μg per sample was reverse transcribed with random primers using M-MLV (Promega) at 37° C. for 1 hour. PCR was carried out at 94° C. for 30 sec, 60° C. for 30 sec, and 72° C. for 30 sec with initial activation of the enzyme at 94° C. for 1 minute. Thirty cycles were performed for LDLR and GAPDH. PCR was performed using primers HLDLR-up and HLDLR-lo for LDLR and primers HGAPDH-up and HGAPDH-lo for GAPDH. The PCR products were separated on a 1% agarose gel and the band intensity was quantitated. LDLR mRNA levels were corrected by measuring GAPDH mRNA levels.

[3] = tested on: LDLR mRNA expression in HepG2 cells; assay: LDLR mRNA expression in HepG2 cells, quantitative real-time RT-PCR (Example 7); assay type: cell-based, human; conditions: dose less than or equal to 10 μM, 24 hours
Procedure: In yet another experiment, HepG2 cells were treated with various compounds for 24 hours at the indicated doses. Total RNA was isolated and 2 μg was used to generate cDNA in a reaction containing random primers and M-MLV at 37° C. for 1 hour in a volume of 25 μL. Real-time PCR was performed on the cDNA using MCEP REALPLEX 2 SYSTEM (Eppendorf) and Universal MasterMix (Applied Biosystems). Human LDLR and GAPDH Pre-Developed TaqMan Assay Reagents (Applied Biosystems) were used to assess the levels of mRNA expressions in HepG2. The levels of LDLR mRNA were normalized to that of GAPDH. Each RNA samples was assayed in triplicate. The abundance of LDLR mRNA in untreated cells was defined as 1, and the amounts of LDLR mRNA from compound-treated cells were plotted relative to that value in FIG. 2B. The data shown are mean±s.d.
Activities of some compounds of Formulas I, II and EE on LDLR mRNA expression were determined. HepG2 cells were treated with new compounds individually at a dose less than or equal to 10 μM for 24 hours. […] In these experiments, berberine chloride was included for comparison.

[4] = tested on: intracellular triglyceride in HepG2 cells; assay: Reduction of intracellular triglyceride in HepG2 cells (Example 8); assay type: cell-based, human
Excerpt: Berberine chloride was used for comparison. The amount of TG in untreated control cells was defined as 100% and the amounts of TG in compound-treated cells were divided to that value.

[5] = Stability of compound 69 under cell culture conditions, LC-MS of medium; assay type: in vitro ADME, human; conditions: for Peak Area m/z 466.1: 20 μM in HepG2 culture medium
Procedure: HepG2 cells were cultured in 6-well cell culture plate in EMEM containing 0.5% FBS overnight. Compound 69+ was added to the culture medium to a final concentration of 20 μM. Medium was collected at 0 (control), 4, 8, or 24 hours after the compound addition.
The collected media were analyzed by LC-MS on a Thermo Fisher Scientific Surveyor HPLC system and LCQ ion trap MS with electrospray ionization source. A 50×2. 1 mm Hypersil Gold C18 3 um column was used with a flow rate of 200 uL/min. The method conditions were 98% A (0.1% formic acid in water)/2% B (0.1% formic acid in acetonitrile) then a gradient to 95% B in 10 minutes. The injection volume was 10 uL.

| Structure (SMILES) | Activity on LDLR mRNA expression (Fold of control) [3] | Activity on DiI-LDL uptake ([1]; A, compound dose ≦10 μM) | also measured |
| --- | --- | --- | --- |
| COc1cc2c(cc1OC)[C@H]1[C@@H](C)c3ccc(OC)c(OC)c3CN1CC2 [14R,13S-(+)-CRDL] | – | – | Activity on DiI-LDL uptake ([1]; B, compound dose ≦40 μM): ++; effects on LDLR mRNA expression [2]: potent and dose-dependent effects |
| COc1cc2c(cc1OC)[C@H]1Cc3ccc(OC)c(OC)c3CN1CC2 [14R-(+)-THP, 14R-tetrahydropalmatine, reference compound] | – | – | Activity on DiI-LDL uptake ([1]; B, compound dose ≦40 μM): ++; effects on LDLR mRNA expression [2]: potent and dose-dependent effects |
| COc1ccc2cc3[n+](cc2c1OC)CCc1cc2c(cc1-3)OCO2 [Berberine, reference compound] | 1.30 ± 0.11 Fold of control | – | Activity on DiI-LDL uptake ([1]; B, compound dose ≦40 μM): +; Activity on reduction of cellular TG accumulation (% of control) ([4]; B, compound dose ≦40 μM): 70.9 ± 5.4 % of control |
| COc1cc2c(cc1OC)C1Cc3cccc(OC)c3CN1CC2 (stereo not shown) [Compound 22, 2,3,9-trimethoxy-5,6,7,8,13,13a-hexahydroisoquinolino[3,2-a]isoquinoline] | – | – | Activity on reduction of cellular TG accumulation (% of control) ([4]; B, compound dose ≦40 μM): 53.35 ± 12.68 % of control |
| COc1ccc2c(c1OS(=O)(=O)c1ccc(C(C)(C)C)cc1)CN1CCc3cc4c(cc3C1C2)OCO4 (stereo not shown) [Compound 38, 10-methoxy-5,6,7,8,13,13a-hexahydro-2H-1,3-dioxolano[4,5-g]isoquinolino[3,2-a]isoquinolin-9-yl 4-(tert-butyl)benzenesulfonate] | 1.82 ± 0.10 Fold of control | ++ | – |
| COc1ccc2c(c1OC(=O)NC(C)C)CN1CCc3cc4c(cc3C1C2)OCO4 (stereo not shown) [Compound 41, (10-methoxy(5,6,7,8,13,13a-hexahydro-2H-1,3-dioxolano[4,5-g]isoquinolino[3,2-a]isoquinolin-9-yloxy))-N-(methylethyl)carboxamide] | 1.60 ± 0.03 Fold of control | ++ | – |
| COc1ccc2c(c1OC(=O)N(C)C)CN1CCc3cc4c(cc3C1C2)OCO4 (stereo not shown) [Compound 43, (10-methoxy(5,6,7,8,13,13a-hexahydro-2H-1,3-dioxolano[4,5-g]isoquinolino[3,2-a]isoquinolin-9-yloxy))-N,N-dimethylcarboxamide] | 1.95 ± 0.18 Fold of control | ++ | – |
| COc1ccc2c(c1OC(=O)Nc1ccc(OC(F)(F)F)cc1)CN1CCc3cc4c(cc3C1C2)OCO4 (stereo not shown) [Compound 44, (10-methoxy(5,6,7,8,13,13a-hexahydro-2H-1,3-dioxolano[4,5-g]isoquinolino[3,2-a]isoquinolin-9-yloxy))-N-[4-(trifluoromethoxy)phenyl] carboxamide] | 2.20 ± 0.06 Fold of control | ++ | – |
| COc1cc(NC(=O)Oc2c(OC)ccc3c2CN2CCc4cc5c(cc4C2C3)OCO5)cc(OC)c1 (stereo not shown) [Compound 45, N-(3,5-dimethoxyphenyl)(10-methoxy(5,6,7,8,13,13a-hexahydro-2H-1,3-dioxolano[4,5-g]isoquinolino[3,2-a]isoquinolin-9-yloxy))carboxamide] | 2.09 ± 0.11 Fold of control | ++ | – |
| COc1ccc2c(c1OC(=O)Nc1cccc(C)c1)CN1CCc3cc4c(cc3C1C2)OCO4 (stereo not shown) [Compound 46, (10-methoxy(5,6,7,8,13,13a-hexahydro-2H-1,3-dioxolano[4,5-g]isoquinolino[3,2-a]isoquinolin-9-yloxy))-N-(3-methylphenyl)carboxamide] | 1.80 ± 0.16 Fold of control | ++ | – |
| COc1ccc2c(c1OS(=O)(=O)c1ccccc1C)CN1CCc3cc4c(cc3C1C2)OCO4 (stereo not shown) [Compound 50, 10-methoxy-5,6,7,8,13,13a-hexahydro-2H-1,3-dioxolano[4,5-g]isoquinolino[3,2-a]isoquinolin-9-yl 2-methylbenzenesulfonate] | 4.74 ± 0.96 Fold of control | +++ | – |
| COc1ccc2c(c1OS(=O)(=O)c1cccs1)CN1CCc3cc4c(cc3C1C2)OCO4 (stereo not shown) [Compound 56, 10-methoxy-5,6,7,8,13,13a-hexahydro-2H-1,3-dioxolano[4,5-g]isoquinolino[3,2-a]isoquinolin-9-yl thiophene-2-sulfonate] | 3.18 ± 0.63 Fold of control | +++ | – |
| COc1ccc2c(c1OS(=O)(=O)c1ccccc1)CN1CCc3cc4c(cc3C1C2)OCO4 (stereo not shown) [Compound 69, 9-benzenesulfonyloxy-10-methoxy-5,8,13,13a-tetrahydro-6H-[1,3]dioxolo[4,5-g]isoquino[3,2-a]isoquinoline] | 2.21 ± 0.09 Fold of control | +++ | Peak Area m/z 466.1 ([5]; 0 (control) hours): 2.38e8; Peak Area m/z 466.1 ([5]; 4 h): 9.67e7; Peak Area m/z 466.1 ([5]; 8 h): 9.22e7; Peak Area m/z 466.1 ([5]; 24 h): 7.03e7; stability under cell culture conditions ([5]; HepG2 culture medium, up to 24 hours): fairly stable under cell culture conditions; Activity on reduction of cellular TG accumulation (% of control) ([4]; A, compound dose ≦10 μM): 60.4 ± 7.34 % of control |
| COc1ccc2c(c1OCCO)CN1CCc3cc4c(cc3C1C2)OCO4 (stereo not shown) [Compound 82, 9-O-2-(1′-hydroxy-ethyl)-10-methoxy-5,8,13,13a-tetrahydro-6H-[1,3]dioxolo[4,5-g]isoquino[3,2-a]isoquinoline] | – | – | Activity on reduction of cellular TG accumulation (% of control) ([4]; B, compound dose ≦40 μM): 53.2 ± 21.3 % of control |
| CCOC(=O)COc1c(OC)ccc2c1CN1CCc3cc4c(cc3C1C2)OCO4 (stereo not shown) [Compound 83, 2-[10-methoxy-5,8,13,13a-tetrahydro-6H-[1,3]dioxolo[4,5-g]isoquino[3,2-a]isoquinoline-9-yl]-acetic esate] | – | – | Activity on reduction of cellular TG accumulation (% of control) ([4]; B, compound dose ≦40 μM): 63.0 ± 0.90 % of control |
